From patent US3985758A, “1,4-Dihydropyridine derivatives” (Yamanouchi Pharmaceutical Co., Ltd., priority 1973, dated 1976)
Values after ≈ are worked out from the molar mass of the structure shown. Counter-ions that a name gives are not always drawn. Like-named read-outs stand apart in the source and are kept apart here. One block for each compound: values may come before it.

How the values were obtained:
in vivo = conditions: mouse, in vivo, iv
Experimental: LD50 was determined by using mice.
2. Acute toxicity in mice
Male ICR weighing 25 to 32 g were used. The test compounds were injected into tail vein and LD 50 values were determined.

[1] = system: vertebral and femoral blood flow; assay: Vertebral and femoral blood flow in anesthetized dogs; type: in vivo, mongrel dog; conditions: 0.01 mg/kg i.v. (0.01 or 0.03 mg/kg); for Blood pressure change (Δ mmHg): femoral artery; for Separation ratio (percent increase of vertebral blood flow / that of femoral blood flow): significance vs SKF 24260
Experimental: Vertebral and femoral blood flow in anesthetized dogs.
Mongrel dogs of both sexes weighing from 12 to 27 kg were anesthetized with sodium pentobarbitol (30 mg/kg i.v.). In all experiments, trachea was cannulated and the animals were artificially ventilated with room air. Blood pressure in cannulated femoral artery was measured by means of a pressure transducer (Nihon Kohden, MPU 0.5). Vertebral and femoral blood flow were measured by a noncannulating electromagnetic flowmeter (Nihon Kohden, MF-25) positioned around the vessels. Recordings were made on an ink-writing polygraph (Nihon Kohden, RM-150 or RM-85). The test compounds were injected at a dose of 0.01 mg/kg into femoral vein.

[2] = Solubility in water at 25° C; type: physicochemical
[3] = Naturwissenschaften 58, (11)578(1971); cited from earlier work
vertebral artery = assay: Direct vasodilating effect on vertebral artery, constant volume perfusion; type: in vivo, mongrel dog; conditions: intra-arterial; for Vasodilation ED50, vertebral artery: ±SE, maximum response to papaverine 3000 μg i.a. = 100%
Excerpt: (§1) Heparin (1000 μ/Kg, i.v.) was used as an anticoagulant. The methods for perfusion of each artery were as following: 1) For the vertebral artery, the arterial blood led from the left common carotid artery was collected by the tygon tubing and perfused by the Sigma-motor pump (Mippleport N.Y. T-8) into the right vertebral artery. 2) For the femoral artery, the arterial blood led from the proximal femoral artery was perfused by the Sigma-motor pump into the distal femoral artery. […] All drugs were given into a rubber tube connected close to the each arterial cannula by a microinjector (Jintan Terumo, NSN-100).

femoral artery = assay: Direct vasodilating effect on femoral artery, constant volume perfusion; type: in vivo, mongrel dog; conditions: intra-arterial; ±SE; maximum response to papaverine 3000 μg i.a. = 100%
Excerpt: For the analysis of the selective effect on vasculature by the drugs, direct effect on cerebral (vertebral artery) and peripheral (femoral artery) vascular bed were studied by the method of the constant volume perfusion.
as §1

guinea-pig ileum = assay: Spasmolytic activity in isolated guinea-pig ileum (Magnus apparatus); conditions: Cavia porcellus, ±S.E.
Experimental: Methods: Isolated guinea-pig ileum was suspended in Tyrodes solution by use of Magnus apparatus and the movements of the muscle were recorded in a kymograph by an isotonic lever.

[4] = compounds of the present invention, 25° C
[5] = compounds of the present invention, 25° C, at the given pH, read-out: Solubility

Compound: CC(=O)C1=C(C)NC(C)=C(C(=O)OCCN(C)Cc2ccccc2)C1c1cccc([N+](=O)[O-])c1 (stereo not drawn) [R5=CH3, A=CH2CH2, R3=drawing 14, R4=CH3, 3-Acetyl-2,6-dimethyl-4-(3'-nitrophenyl)-1,4-dihydropyridine-5-carboxylic acid 3-β-(N-benzyl-N-methylamino)ethyl ester]
LD50 (in vivo): 40 mg/kg

Compound: COC(=O)C1=C(C)NC(C)=C(C(=O)OCCN(C)Cc2ccccc2)C1c1ccccc1C(F)(F)F (stereo not drawn) [Example 24, 2,6-dimethyl-4-(o-trifluoromethyl-phenyl)-1,4-dihydropyridine-3,5-dicarboxylic acid 3-β-(N-benzyl-N-methylamino)ethyl ester 5-methyl ester hydrochloride]
Femoral blood flow (FBF %) [1]: 67 ± 10.5% | Vertebral blood flow (VBF Δ %) [1]: 119 ± 20.4 Δ % | Blood pressure change (Δ mmHg) [1]: -28 ± 4.9 Δ mmHg | Separation ratio (percent increase of vertebral blood flow / that of femoral blood flow) [1]: 2.04 ± 0.53 | LD50 (in vivo): 23.7 mg/kg | pH (of solubility determination) [2, 4]: 3.91 | solubility [2, 5]: 2300 µg/mL

Compound: CCOC(=O)C1=C(C)NC(C)=C(C(=O)OCCN(C)Cc2ccc(Cl)cc2)C1c1cccc([N+](=O)[O-])c1 (stereo not shown) [R5=C2H5O, A=CH2CH2, R3=drawing 13, R4=CH3]
LD50 (in vivo): 12 mg/kg

Compound: COC(=O)C1=C(C)NC(C)=C(C(=O)OCCN(C)Cc2ccccc2)C1c1ccccc1[N+](=O)[O-] (stereo not drawn) [Example 36, 2,6-dimethyl-4-(2'-nitrophenyl)-1,4-dihydropyridine-3.5-dicarboxilic acid 3-methyl ester 5-β-(N-benzyl-N-methylamino) ethyl ester hydrochloride]
Femoral blood flow (FBF %) [1]: 83 ± 14.1% | Vertebral blood flow (VBF Δ %) [1]: 167 ± 31.7 Δ % | Blood pressure change (Δ mmHg) [1]: -26 ± 5.0 Δ mmHg | Separation ratio (percent increase of vertebral blood flow / that of femoral blood flow) [1]: 2.21 ± 0.56 | LD50 (in vivo): 14 mg/kg

Compound: CC1=C(C(=O)OCCCN(C)Cc2ccccc2)C(c2cccc([N+](=O)[O-])c2)C(C(=O)OC(C)C)=C(C)N1 (stereo not shown) [2,6-dimethyl-4-(3'-nitrophenyl)-1,4-dihydropyridine-3,5-dicarboxylic acid 3-isopropylester-5-γ-(N-benzyl-N-methylamino)propyl ester]
LD50 (in vivo): 10 mg/kg

Compound: CC1=C(C(=O)OCCN(C)Cc2ccccc2)C(c2cccc([N+](=O)[O-])c2)C(C(=O)OC(C)C)=C(C)N1 (stereo not drawn) [R5=drawing 11, A=CH2CH2, R3=drawing 10, R4=CH3, 2,6-Dimethyl-4-(3'-nitrophenyl)-1,4-dihydropyridine-3,5-dicarboxylic acid 3-β-(N-benzyl-N-methylamino)ethyl ester 5-isopropyl ester]
LD50 (in vivo): 15 mg/kg

Compound: COC(=O)C1=C(C)NC(C)=C(C(=O)OC)C1c1ccccc1[N+](=O)[O-] [Nifedipine, 4-(2'-nitrophenyl)-2,6-dimethyl-1,4-dihydropyridine-3,5-dicarboxylic acid dimethyl ester]
Coronary vasodilator activity and spasmolytic activity [3]: much excellent coronary vasodilator activity and spasmolytic activity | Vasodilation ED50, vertebral artery (vertebral artery): 0.74 ± 0.15 µg | Femoral blood flow (FBF %) [1]: 109 ± 34.1% | Vertebral blood flow (VBF Δ %) [1]: 135 ± 28.8 Δ % | Blood pressure change (Δ mmHg) [1]: -39 ± 3.2 Δ mmHg | Vasodilation ED50, femoral artery (femoral artery): 0.37 ± 0.11 µg | Heart rate (Δbeats/min.±SE) (anesthetized dogs; 0.001 mg/Kg i.v.): 10±3.5 Δbeats/min. | Mean blood pressure (ΔmmHg±SE) (anesthetized dogs; 0.001 mg/Kg i.v.): -10±1.6 ΔmmHg | Vertebral blood flow (Δ%±SE) (anesthetized dogs; 0.001 mg/Kg i.v.): 47±13.5 Δ% | Heart rate (Δbeats/min.±SE) (anesthetized dogs; 0.003 mg/Kg i.v.): 18±3.2 Δbeats/min. | Mean blood pressure (ΔmmHg±SE) (anesthetized dogs; 0.003 mg/Kg i.v.): -24±5.9 ΔmmHg | Vertebral blood flow (Δ%±SE) (anesthetized dogs; 0.003 mg/Kg i.v.): 104±25.8 Δ% | Heart rate (Δbeats/min.±SE) (anesthetized dogs; 0.01 mg/Kg i.v.): 17±4.0 Δbeats/min. | Mean blood pressure (ΔmmHg±SE) (anesthetized dogs; 0.01 mg/Kg i.v.): -39±3.2 ΔmmHg | Vertebral blood flow (Δ%±SE) (anesthetized dogs; 0.01 mg/Kg i.v.): 135±28.8 Δ%

Compound: COC(=O)C1=C(C)NC(C)=C(C(=O)OC)C1c1ccccc1C#N [reference compound]
Femoral blood flow (FBF %) [1]: 109 ± 28.0% | Vertebral blood flow (VBF Δ %) [1]: 97 ± 16.0 Δ % | Blood pressure change (Δ mmHg) [1]: -38 ± 6.0 Δ mmHg | Separation ratio (percent increase of vertebral blood flow / that of femoral blood flow) [1]: 1.20 ± 0.27 | LD50 (in vivo): 7.4 mg/kg | pH (of solubility determination) ([2]; known compounds, 25° C): 5.80 | solubility ([2]; known compounds, 25° C, at the given pH, read-out: Solubility): 10 µg/mL (≈ 30.6 µM) | solubility ([2]; known compounds, pH 4.00, 25° C, read-out: Solubility at pH 4.00): 1 µg/mL (≈ 3.06 µM)

Compound: CCOC(=O)C1=C(C)NC(C)=C(C(=O)OCCN(C)Cc2ccc(OC)cc2)C1c1cccc([N+](=O)[O-])c1 (stereo not shown) [R5=C2H5O, A=CH2CH2, R3=drawing 12, R4=CH3]
LD50 (in vivo): 10 mg/kg

Compound: CCN(CCOC(=O)C1=C(C)NC(C)=C(C(=O)OC(C)C)C1c1cccc([N+](=O)[O-])c1)Cc1ccccc1 (stereo not drawn) [R5=drawing 11, A=CH2CH2, R3=drawing 10, R4=C2H5, 2,6-Dimethyl-4-(3'-nitrophenyl)-1,4-dihydropyridine-3,5-dicarboxylic acid 3-β-(N-benzyl-N-ethylamino)ethyl ester 5-isopropyl ester]
LD50 (in vivo): 12 mg/kg

Compound: CCOC(=O)C1=C(C)NC(C)=C(C(=O)OCCN(C)Cc2ccc(OC)cc2)C1c1cccc([N+](=O)[O-])c1 (stereo not drawn) [Example 14, 2,6-dimethyl-4-(3'-nitrophenyl)-1,4-dihydropyridine-3,5-dicarboxylic acid 3-ethyl ester 5-β-(N-methyl-N-p-methoxybenzylamino)ethyl ester]
pH (of solubility determination) [2, 4]: 4.17 | solubility [2, 5]: 1000 µg/mL (≈ 1910 µM)

Compound: COc1ccc(Cc2nccc3cc(OC)c(OC)cc23)cc1OC [Papaverine]
IC50 (guinea-pig ileum; read-out: Spasmolytic activity, 50% inhibition of contractile response, Acetylchloline 10^-7 g/ml): 11 µg/mL (≈ 32.4 µM) | IC50 (guinea-pig ileum; read-out: Spasmolytic activity, 50% inhibition of contractile response, BaCl2 2×10^-4 g/ml): 7.2 µg/mL (≈ 21.2 µM) | IC50 (guinea-pig ileum; read-out: Spasmolytic activity, 50% inhibition of contractile response, Histamine 10^-7 g/ml): 7 µg/mL (≈ 20.6 µM) | Selectivity ratio (ED50 in femoral artery/ED50 in vertebral artery) (vertebral artery; anesthetized dogs): 0.67 | Vasodilation ED50, vertebral artery (vertebral artery): 72.8 ± 8.71 µg | Vasodilation ED50, femoral artery (femoral artery): 48.8 ± 3.73 µg | Heart rate (Δbeats/min.±SE) (anesthetized dogs; 0.1 mg/Kg i.v.): 8±1.5 Δbeats/min. | Mean blood pressure (ΔmmHg±SE) (anesthetized dogs; 0.1 mg/Kg i.v.): -9±1.1 ΔmmHg | Vertebral blood flow (Δ%±SE) (anesthetized dogs; 0.1 mg/Kg i.v.): 22±3.4 Δ% | Heart rate (Δbeats/min.±SE) (anesthetized dogs; 0.3 mg/Kg i.v.): 22±3.5 Δbeats/min. | Mean blood pressure (ΔmmHg±SE) (anesthetized dogs; 0.3 mg/Kg i.v.): -21±2.8 ΔmmHg | Vertebral blood flow (Δ%±SE) (anesthetized dogs; 0.3 mg/Kg i.v.): 67±7.1 Δ% | Heart rate (Δbeats/min.±SE) (anesthetized dogs; 1.0 mg/Kg i.v.): 44±4.8 Δbeats/min. | Mean blood pressure (ΔmmHg±SE) (anesthetized dogs; 1.0 mg/Kg i.v.): -32±3.5 ΔmmHg | Vertebral blood flow (Δ%±SE) (anesthetized dogs; 1.0 mg/Kg i.v.): 124±13.8 Δ%

pH (of solubility determination) [2, 4]: 4.10 | solubility [2, 5]: 3200 µg/mL (≈ 6300 µM)
Compound: CC1=C(C(=O)OCCN(C)Cc2ccccc2)C(c2ccccc2[N+](=O)[O-])C(C(=O)OC(C)C)=C(C)N1 (stereo not drawn) [Example 4, 2,6-dimethyl-4-(2'-nitrophenyl)-1,4-dihydropyridine-3,5-dicarboxylic acid 3-isopropylester-5-β-(N-benzyl-N-methylamino)ethyl ester]

Compound: CC(=O)C1=C(C)NC(C)=C(C(=O)OCCN(C)Cc2ccc(Cl)cc2)C1c1cccc([N+](=O)[O-])c1 (stereo not drawn) [R5=CH3, A=CH2CH2, R3=drawing 15, R4=CH3, 3-Acetyl-2,6-dimethyl-4-(3'-nitrophenyl)-1,4-dihydropyridine-5-carboxylic acid 3-β-(N-p-chlorobenzyl-N-methylamino)ethyl ester]
LD50 (in vivo): 45 mg/kg

pH (of solubility determination) [2, 4]: 3.16 | solubility ([2]; compounds of the present invention, 25° C, at the given pH): 2.74%
Compound: 2,6-dimethyl-4-(2'-nitrophenyl)-1,4-dihydropyridine-3,5-dicarboxylic acid bis[β-(N-benzyl-N-methylaminethyl] ester hydrochloride [Example 9]

Compound: CCOC(=O)C1=C(C)NC(C)=C(C(=O)OCCN(C)Cc2ccccc2)C1c1cccc([N+](=O)[O-])c1 (stereo not drawn) [R5=C2H5O, A=CH2CH2, R3=drawing 10, R4=CH3, 2,6-Dimethyl-4-(3'-nitrophenyl)-1,4-dihydropyridine-3,5-dicarboxylic acid 3-β-(N-benzyl-N-methylamino)ethyl ester 5-ethyl ester]
LD50 (in vivo): 15 mg/kg

Compound: CC1=C(C(=O)OCCN(C)Cc2ccccc2)C(c2cccc([N+](=O)[O-])c2)C(C(=O)OC(C)C)=C(C)N1 (stereo not drawn) [Example 1, 2,6-dimethyl-4-(3'-nitrophenyl)-1,4-dihydropyridine-3,5-dicarboxylic acid-3-isopropylester-5-β-(N-benzyl-N-methylamino)-ethyl ester hydrochloride]
pH (of solubility determination) [2, 4]: 4.12 | solubility [2, 5]: 3100 µg/mL

pH (of solubility determination) [2, 4]: 3.20 | solubility [2, 5]: 25300 µg/mL
Compound: COc1ccc(CN(C)CCOC(=O)C2=C(C)NC(C)=C(C(=O)OCCN(C)Cc3ccc(OC)cc3)C2c2cccc([N+](=O)[O-])c2)cc1 [Example 16, dihydrochloride]

Compound: CCOC(=O)C1=C(C)NC(C)=C(C(=O)OCCN(C)Cc2ccccc2)C1c1cccc([N+](=O)[O-])c1 (stereo not drawn) [Example 6, 2,6-dimethyl-4-(3'-nitrophenyl)-1,4-dihydropyridine-3,5-dicarboxylic acid 3-ethylester-5-β-(N-benzyl-N-methylamino)ethyl ester]
pH (of solubility determination) [2, 4]: 4.20 | solubility [2, 5]: 2900 µg/mL (≈ 5880 µM)
